Reference: PubChem BioAssay (NCI)
Values joined by “and” are separate entries in the source; they are usually repeats but may differ in a detail not shown here. Identical values can stand only once.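 Cultured in 96-well plates, cells were exposed to test compound for 48 hours across five concentrations. TGI: concentration producing complete growth inhibition.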

Tests used:
Test in all cases: NCI tumour cell line growth inhibition, 48 h
[1] = test system: LOX IMVI melanoma
[2] = test system: M14 melanoma
[3] = test system: MOLT-4 leukemia
[4] = test system: NCI-H23 lung
[5] = test system: NCI/ADR-RES ovarian
[6] = test system: OVCAR-4 ovarian
[7] = test system: OVCAR-5 ovarian
[8] = test system: OVCAR-8 ovarian
[9] = test system: SK-MEL-2 melanoma
[10] = test system: SR leukemia

SMILES	TGI [1]	TGI [2]	TGI [3]	TGI [4]	TGI [5]	TGI [6]	TGI [7]	TGI [8]	TGI [9]	TGI [10]
COc1ccc2c(c1)nc1n2C(c2c(F)cccc2Cl)SC1 (configuration not stated)	> 61.6 µM	> 24.7 µM	> 41.4 µM	> 35 µM	4.81 µM	> 100 µM	> 100 µM	51 µM	> 27.7 µM	> 36.4 µM
COC(=O)/C=C1/N=C(N(C)/N=C/c2ccccc2)NC1=O	> 100 µM	> 100 µM	> 100 µM	> 100 µM	> 100 µM	> 100 µM	> 100 µM	> 100 µM	> 100 µM	> 100 µM
Cc1ccc2c(=O)c(-c3nnc(N)s3)c[nH]c2n1	> 100 µM	> 100 µM	> 100 µM	> 100 µM	> 100 µM	> 100 µM	> 100 µM	> 100 µM	> 100 µM	–
Cc1c[nH]c(C(=O)O)c1-c1ccc2c(-c3ccccc3)nc3ccccc3n12	63 µM	> 100 µM	94.8 µM	> 100 µM	48.1 µM	> 100 µM	> 100 µM	> 100 µM	55.1 µM	66.2 µM
Cc1nc2ccccc2c(=O)n1NC(=O)c1ccccc1O	> 100 µM	> 100 µM	> 100 µM	> 100 µM	–	> 100 µM	> 100 µM	> 100 µM	–	> 100 µM
CN(C)c1ccc(/C=C(\NC(=O)c2ccccc2)C(=O)Nc2ccccc2C(=O)O)cc1	> 100 µM	> 100 µM	> 100 µM	> 100 µM	> 100 µM	–	> 100 µM	> 100 µM	> 100 µM	> 100 µM
CC(=O)Nc1cc2c(cc1O)CC[C@@H]1[C@@H]2CC[C@]2(C)[C@@H](O)CC[C@@H]12	> 100 µM	> 100 µM	> 100 µM	> 100 µM	55.9 µM	> 100 µM	> 100 µM	> 100 µM	–	> 100 µM
C=C(C)[C@@]1(O)CCC[C@H]1NC(=O)OC(C)(C)C	> 100 µM	> 100 µM	–	> 100 µM	> 100 µM	> 100 µM	> 100 µM	> 100 µM	> 100 µM	–
COc1ccc(-n2c(C)nc3ccc(NC4OCC(O)C(O)C4O)cc3c2=O)cc1 (configuration not stated)	42.6 µM and 50.8 µM	–	84.7 µM and > 100 µM	> 100 µM	> 100 µM	> 100 µM	> 100 µM	94.6 µM and 82.3 µM	> 100 µM	68.4 µM and 60.4 µM
C[C@@H](NC(=O)OC1C=CC2(CC1)C(=O)N(C)c1ccccc12)c1cccc2ccccc12 (some centres not stated)	> 25 µM	> 25 µM	> 25 µM	> 25 µM	> 25 µM	> 25 µM	> 25 µM	> 25 µM	> 25 µM	> 25 µM
CC(C)(C)OC(=O)NC(Cc1cnc[nH]1)C(=O)N1CCCC1C(N)=O (configuration not stated)	> 100 µM	> 100 µM	> 100 µM	> 100 µM	> 100 µM	> 100 µM	> 100 µM	> 100 µM	> 100 µM	> 100 µM
COC(=O)C(Cc1ccccc1I)C1=CCC2(CC1)OCCO2 (configuration not stated)	58.7 µM	50.4 µM	56.8 µM	95.1 µM	55.8 µM	> 100 µM	54.5 µM	> 100 µM	75.4 µM	52 µM
Cc1ccc(CS(=O)(=O)C/N=c2\sc3ccccc3nc2/C=C(\O)c2ccc(Cl)cc2)cc1	> 10 µM	> 10 µM	> 10 µM	> 10 µM	> 10 µM	> 10 µM	> 10 µM	> 10 µM	–	> 10 µM
O=P1(Oc2ccc(Cl)cc2)OCCS1 (configuration not stated)	> 100 µM	> 100 µM	–	> 100 µM	> 100 µM	–	> 100 µM	> 100 µM	> 100 µM	> 100 µM
CC(=O)NCCc1c[nH]c2ccc(Cl)cc12	> 100 µM	> 100 µM	> 100 µM	> 100 µM	> 100 µM	> 100 µM	> 100 µM	> 100 µM	> 100 µM	> 100 µM
CN(C)CCNC(=O)c1cccc2nc3cccc(F)c3nc12	2.24 µM	4.58 µM	14.2 µM	5.17 µM	3.83 µM	4.83 µM	7.06 µM	3.68 µM	4.86 µM	–
C=C1CC(Cn2cc(C)c(=O)[nH]c2=O)(c2ccc(-c3ccccc3)cc2)OC1=O (configuration not stated)	3.49 µM	–	2.8 µM	3.99 µM	13.8 µM	6.76 µM	23.3 µM	4.98 µM	4.19 µM	12.8 µM
COc1cc(C(N)=O)cc(NC(=O)/C=C/c2ccccc2)c1OC	> 100 µM	> 100 µM	> 100 µM	> 100 µM	> 100 µM	> 100 µM	> 100 µM	> 100 µM	> 100 µM	> 100 µM
O=c1cc(CC(O)(C(F)(F)Cl)C(F)(F)Cl)[nH]n1-c1ccccc1	> 100 µM	> 100 µM	> 100 µM	> 100 µM	> 100 µM	> 100 µM	> 100 µM	> 100 µM	–	> 100 µM
O=C1c2ccccc2C(=O)N1CCCCCCNOCCCN1C(=O)c2ccccc2C1=O	> 100 µM	61.4 µM	38.7 µM	97.1 µM	70 µM	93.3 µM	> 100 µM	> 100 µM	47.8 µM	> 100 µM
Cc1ccc2[nH]c3[nH]c(=O)[nH]c(=O)c3c2c1	> 100 µM	> 100 µM	> 100 µM	> 100 µM	> 100 µM	–	> 100 µM	> 100 µM	> 100 µM	–
CN(C)CCCNc1nnc(NCCCN(C)C)c2c(=O)c3sccc3[nH]c12	54.4 µM	23.9 µM	14.4 µM	> 100 µM	> 100 µM	23.2 µM	> 85.1 µM	> 100 µM	37.8 µM	> 30.5 µM
Cc1cc2c(cc1C)[n+](=O)c(N1CCN(c3ccc([N+](=O)[O-])cc3)CC1)c(C#N)n2[O-]	> 100 µM	> 100 µM	–	> 100 µM	> 100 µM	> 100 µM	> 100 µM	49.8 µM	66 µM	–

SMILES	TGI [1]	TGI [2]	TGI [3]	TGI [4]	TGI [5]	TGI [6]	TGI [7]	TGI [8]	TGI [9]	TGI [10]
CCCN(CCCCN1C(=O)c2ccccc2C1=O)CC1COc2ccccc2O1 (configuration not stated)	> 100 µM	> 100 µM	66.5 µM	> 100 µM	> 100 µM	> 100 µM	> 100 µM	> 100 µM	> 100 µM	77.6 µM
CC1OC(OC2C(O)COC(OC3C(C)OC(OC4C(OC(=O)[C@]56CCC(C)(C)C[C@@H]5C5=CCC7[C@@]8(C)C[C@H](O)[C@H](OC9OC(CO)C(O)C(OC%10OC(CO)C(O)C(O)C%10O)C9O)[C@@](C)(CO)[C@@H]8CC[C@@]7(C)[C@]5(C)CC6)OCC(O)C4O)C(O)C3OC3OCC(O)C(O)C3O)C2O)C(O)C(O)C1O (some centres not stated)	29.6 µM	3.58 µM	36.1 µM	10.4 µM	26.4 µM	29.8 µM	22.8 µM	29 µM	11.7 µM	27 µM
CCn1c(=O)ccc2ccc(N(CCO)CCO)nc21	–	> 100 µM	> 100 µM	> 100 µM	> 100 µM	> 100 µM	> 100 µM	> 100 µM	> 100 µM	> 100 µM
Cc1c(CCCl)c(N=[N+]=[N-])n2c(nc3ccccc32)c1C#N	2.37 µM	2.77 µM	1.12 µM	2.95 µM	5.53 µM	3.54 µM	4.73 µM	5.21 µM	3.48 µM	1.08 µM
O=[N+]([O-])c1cccc2nc3ccccc3c(NCCCN3CCOCC3)c12	1.66 µM	0.0233 µM	24.2 µM	0.0418 µM	0.341 µM	0.0494 µM	0.0841 µM	0.141 µM	0.0362 µM	–
OCC1OC(n2nc(-c3ccccc3)nc2-c2cnccn2)C(O)C1O (configuration not stated)	> 100 µM	> 100 µM	> 100 µM	> 100 µM	> 100 µM	> 100 µM	> 100 µM	> 100 µM	–	–
CC(C)N=C(NC#N)NS(=O)(=O)c1cnccc1Nc1ccc(Cl)cc1	–	> 100 µM	> 100 µM	> 100 µM	> 100 µM	> 100 µM	> 100 µM	> 100 µM	> 100 µM	–
CN(C)CC(CO)(CN(C)C)CN(C)C	–	> 100 µM	> 100 µM	> 100 µM	> 100 µM	> 100 µM	> 100 µM	> 100 µM	–	> 100 µM
CCOC(=O)c1cc2c([nH]1)C(=O)CC1=C2CCN1Cc1ccccc1	29.1 µM	–	17 µM	29.6 µM	43.5 µM	26.8 µM	–	46.6 µM	42.5 µM	33.4 µM
CN1CCN(C(=S)N(C(=O)c2ccco2)c2ccccc2)CC1	> 100 µM	> 100 µM	> 100 µM	> 100 µM	–	> 100 µM	> 100 µM	> 100 µM	> 100 µM	> 100 µM
c1ccc2c3c([nH]c2c1)C1c2[nH]c4ccccc4c2CCN1CC3	34.8 µM	–	42.1 µM	28.2 µM	5.47 µM	18.7 µM	33.7 µM	26.9 µM	64.2 µM	> 100 µM
CCN1CC2=C(NC(=S)NC2c2cc(OC)c(OC)c(OC)c2)/C(=C/c2cc(OC)c(OC)c(OC)c2)C1 (configuration not stated)	> 100 µM	> 100 µM	> 100 µM	> 100 µM	> 100 µM	> 100 µM	> 100 µM	61.6 µM	> 100 µM	–
Cc1ccc(-n2c(Cn3nnc(-c4cccnc4)n3)nn(C3OC(COC(=O)c4ccccc4)C(OC(=O)c4ccccc4)C3OC(=O)c3ccccc3)c2=S)cc1 (configuration not stated)	> 100 µM	> 100 µM	> 100 µM	> 100 µM	> 100 µM	> 100 µM	> 100 µM	> 100 µM	> 100 µM	–
COC(=NCCC1=CCCCC1)OC	–	47.3 µM	> 100 µM	> 100 µM	> 100 µM	> 100 µM	> 100 µM	> 100 µM	> 100 µM	–
CSc1nc2c(N)ncnc2n1C	> 100 µM	> 100 µM	> 100 µM	–	> 100 µM	> 100 µM	> 100 µM	> 100 µM	> 100 µM	–
[N-]=[N+]=Nc1c([N+](=O)[O-])c(Cl)nc2ccccc12	3.07 µM	3.27 µM	0.89 µM	6.64 µM	6.3 µM	4.75 µM	5.63 µM	3.98 µM	5.07 µM	–
O=C(CCc1ccc(O)c(O)c1)NCCc1cc(OCc2ccccc2)cc(OCc2ccccc2)c1	34.5 µM	34 µM	–	31 µM	64 µM	–	30.1 µM	43.4 µM	42 µM	7.18 µM
Cc1c(C(=O)O)c2cc3ccccc3cc2c(=O)n1C	> 10 µM	> 10 µM	–	> 10 µM	> 10 µM	> 10 µM	> 10 µM	> 10 µM	> 10 µM	> 10 µM
CC(=O)O[C@H]1CC[C@@]2(C)C(=CC[C@@H]3[C@@H]2CC[C@]2(C)C(=N/O)/C(=C/c4ccc([N+](=O)[O-])cc4)C[C@@H]32)C1	> 100 µM	47.7 µM	> 100 µM	13.2 µM	> 100 µM	> 100 µM	–	–	17.5 µM	–
O=C(OCC12CC3CC(CC(C3)C1)C2)c1ccc(NCc2cc(O)ccc2O)cc1	4.72 µM	5.77 µM	–	3.88 µM	8.97 µM	6.28 µM	4.71 µM	7.28 µM	8.12 µM	–
CC(C)[Si](OC1=C(C(=O)N(C)c2ccccc2Cl)CCC1)(C(C)C)C(C)C	33.7 µM	35.7 µM	> 100 µM	29.8 µM	30.4 µM	38.1 µM	21.6 µM	31 µM	–	–
Nc1nc(NNc2ccc(Cl)c(Cl)c2)cc(=O)[nH]1	33.1 µM	> 100 µM	90.3 µM	> 100 µM	> 100 µM	> 100 µM	> 100 µM	> 100 µM	–	> 100 µM
